“And” between values parts separate entries of the source, which are not always exact repeats. Identical values can stand only once. Like-named read-outs stand apart in the source and are kept apart here.
Experiments:
[1] = from 90 min dynamic PET in C57B16/J mice
Source text: Normal Tissue Radiation Dose Estimation. Volumes of interest (VOIs) were drawn on coregistered CT images for brain, lungs, heart, liver, stomach, kidneys, and urinary bladder. All VOIs were either elliptical cylinder (5 mm long axis, 3 mm short axis, and 5 mm height for the brain), cylinders (3 mm diameter and 3 mm height for kidneys), or spheres (3 mm diameter for lungs, heart, liver, stomach, and urinary bladder), and they were placed well within the anatomical boundaries to minimize spill-over or spill-in of radioactivity. The mean values (in Bq/ml) in these VOIs were multiplied by standard mouse organ volumes (in ml) to estimate total activity (in Bq) within these organs. The total activity within the entire animal subtracted by all organ activities was used as activity in the remainder of the body. The percent of injected activity within the defined organs (% IA) was extrapolated to human-equivalent values using ratios of standard human organ weights to mouse organ weights.
These input % IA data for each organ and the remainder of the body were curve-fitted to derive time-integrated activity coefficients (also known as residence times) (in Bq-hr/Bq) and organ and whole-body effective doses for human equivalents were estimated using each mouse data. The data from the three animals were averaged to derive absorbed organs doses (in mGy/MBq) and whole-body effective dose (in mSv/MBq). Organ and effective dose estimations were performed using OLINDA version 2.0 using ICRP Publication 103 tissue weighting factors.
To explore the potential of (±)-^11C-YJH08 for human translation, a rodent dosimetry study was conducted in male and female C57B16/J mice ([…]). The human equivalent doses for an average adult male (73 kg) or an average adult female (60 kg) were calculated using OLINDA 2.0 incorporating ICRP103 tissue weighting factors based on region of interest analysis from 90 min dynamic PET acquisitions (Table 11). […] The values were calculated from a 90 min dynamic PET acquisition in intact male or female C57B16/J mice.

PR = molecular target: T1, PR (Homo sapiens, UniProt P06401); assay: 3H-ligand displacement assay on cells, PR (MCF7); format: binding
T1 construct: MCF7 (PR, ER); endogenous in cells; host or cells: MCF7
T1 sequence (P06401 1-933): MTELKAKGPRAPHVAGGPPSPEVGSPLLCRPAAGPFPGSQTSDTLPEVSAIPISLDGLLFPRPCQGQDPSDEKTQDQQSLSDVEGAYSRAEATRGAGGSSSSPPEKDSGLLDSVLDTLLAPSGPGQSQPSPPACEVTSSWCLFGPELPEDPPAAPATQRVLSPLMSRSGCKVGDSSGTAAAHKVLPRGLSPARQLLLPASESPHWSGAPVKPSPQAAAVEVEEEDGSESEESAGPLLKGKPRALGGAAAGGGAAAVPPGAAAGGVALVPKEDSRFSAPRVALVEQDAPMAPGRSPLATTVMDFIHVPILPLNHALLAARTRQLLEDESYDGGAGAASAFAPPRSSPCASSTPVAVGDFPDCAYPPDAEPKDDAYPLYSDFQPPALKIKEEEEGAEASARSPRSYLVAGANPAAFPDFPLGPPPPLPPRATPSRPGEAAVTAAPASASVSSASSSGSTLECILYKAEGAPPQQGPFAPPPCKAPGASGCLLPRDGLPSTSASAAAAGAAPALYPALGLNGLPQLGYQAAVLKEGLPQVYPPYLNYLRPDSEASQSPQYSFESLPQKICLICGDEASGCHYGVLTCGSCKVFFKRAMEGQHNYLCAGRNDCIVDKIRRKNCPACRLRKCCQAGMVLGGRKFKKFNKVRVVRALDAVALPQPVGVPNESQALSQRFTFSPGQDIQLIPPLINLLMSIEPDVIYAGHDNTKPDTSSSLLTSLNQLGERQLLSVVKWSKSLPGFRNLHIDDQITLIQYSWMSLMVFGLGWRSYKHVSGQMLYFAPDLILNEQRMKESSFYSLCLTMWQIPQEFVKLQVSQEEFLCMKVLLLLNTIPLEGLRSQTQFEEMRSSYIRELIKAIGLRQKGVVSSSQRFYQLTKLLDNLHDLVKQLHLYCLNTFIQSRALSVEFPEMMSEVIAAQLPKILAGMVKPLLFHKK
Protocol: The affinity of YJH08 for GR and the other type 1 subfamily 3 nuclear hormone receptors was evaluated using ^3H-ligand displacement assays on cells. The Kd for subfamily 3 class C nuclear hormone receptors was determined on cells by displacing ^3H-steroidal agonists for the respective receptor. […] The Kd was determined using the following cell lines: DU145 (GR), LNCaP-AR (AR), MCF7 (PR, ER), and HEK293 transiently overexpressing full length human MR.
The cold ligands and ^3H-steroids were co-incubated on cells in PBS at room temperature for one hour. Following incubation, the cells were washed twice with ice cold PBS and the unbound activity was retained for analysis. The cells were lysed with 1 mL of 1M NaOH and collected. Bound and unbound fractions were counted in a liquid scintillation counter and expressed as a percentage of the total activity added per equal relative number of cells. […] These experiments were performed at three concentrations of experimental ligand (1 pM, 100 nM and 10 μM), and a linear extrapolation was used to subtract the non-specific component of binding from each treatment condition. The specific binding component was plotted against the log of the competing ligand and curve fit using a non-linear regression algorithm with PRISM software.

## CC1=CC(C)(C)Nc2ccc3c(c21)C(Cc1ccc(F)cc1)Oc1cccc(O[11CH3])c1-3 (racemic) [(±)-^11C-YJH08]
[1]; Adult female (60 kg)
  Effective Dose (whole-body): 0.0065±0.004 mSv/MBq and 0.00649 ± 0.000433 mSv/MBq
  human equivalent absorbed dose, Adrenals: 0.00578 ± 0.000156 mGy/MBq
  human equivalent absorbed dose, Brain: 0.00229 ± 0.000078 mGy/MBq
  human equivalent absorbed dose, Breasts: 0.00286 ± 0.000129 mGy/MBq
  human equivalent absorbed dose, Esophagus: 0.00544 ± 0.000439 mGy/MBq
  human equivalent absorbed dose, Eyes: 0.00223 ± 0.000061 mGy/MBq
  human equivalent absorbed dose, Gallbladder Wall: 0.00459 ± 0.000041 mGy/MBq
  human equivalent absorbed dose, Heart Wall: 0.0257 ± 0.005677 mGy/MBq
  human equivalent absorbed dose, Kidneys: 0.00785 ± 0.001344 mGy/MBq
  human equivalent absorbed dose, Left colon: 0.00437 ± 0.000314 mGy/MBq
  human equivalent absorbed dose, Liver: 0.01863 ± 0.001258 mGy/MBq
  human equivalent absorbed dose, Lungs: 0.00909 ± 0.000339 mGy/MBq
  human equivalent absorbed dose, Osteogenic Cells: 0.00217 ± 0.000069 mGy/MBq
  human equivalent absorbed dose, Ovaries: 0.00288 ± 0.000090 mGy/MBq
  human equivalent absorbed dose, Pancreas: 0.00545 ± 0.000182 mGy/MBq
  human equivalent absorbed dose, Rectum: 0.0028 ± 0.000087 mGy/MBq
  human equivalent absorbed dose, Red Marrow: 0.00289 ± 0.000101 mGy/MBq
  human equivalent absorbed dose, Right colon: 0.00339 ± 0.000070 mGy/MBq
  human equivalent absorbed dose, Salivary Glands: 0.00241 ± 0.000068 mGy/MBq
  human equivalent absorbed dose, Small Intestine: 0.00325 ± 0.000114 mGy/MBq
  human equivalent absorbed dose, Spleen: 0.00432 ± 0.0003 mGy/MBq
  human equivalent absorbed dose, Stomach Wall: 0.01925 ± 0.002944 mGy/MBq
  human equivalent absorbed dose, Thymus: 0.00498 ± 0.000454 mGy/MBq
  human equivalent absorbed dose, Thyroid: 0.00297 ± 0.000118 mGy/MBq
  human equivalent absorbed dose, Total Body: 0.00366 ± 0.000121 mGy/MBq
  human equivalent absorbed dose, Urinary Bladder Wall: 0.00288 ± 0.000114 mGy/MBq
  human equivalent absorbed dose, Uterus: 0.00284 ± 0.000085 mGy/MBq
[1]; Adult male (73 kg)
  Effective Dose (whole-body): 0.0067±0.002 mSv/MBq and 0.00673 ± 0.002757 mSv/MBq
  human equivalent absorbed dose, Adrenals: 0.00533 ± 0.000748 mGy/MBq
  human equivalent absorbed dose, Brain: 0.0014 ± 0.000022 mGy/MBq
  human equivalent absorbed dose, Esophagus: 0.00831 ± 0.004249 mGy/MBq
  human equivalent absorbed dose, Eyes: 0.00194 ± 0.000092 mGy/MBq
  human equivalent absorbed dose, Gallbladder Wall: 0.00602 ± 0.000876 mGy/MBq
  human equivalent absorbed dose, Heart Wall: 0.06753 ± 0.05072 mGy/MBq
  human equivalent absorbed dose, Kidneys: 0.00714 ± 0.000174 mGy/MBq
  human equivalent absorbed dose, Left colon: 0.00374 ± 0.000769 mGy/MBq
  human equivalent absorbed dose, Liver: 0.01568 ± 0.001377 mGy/MBq
  human equivalent absorbed dose, Lungs: 0.0135 ± 0.01113 mGy/MBq
  human equivalent absorbed dose, Osteogenic Cells: 0.00223 ± 0.000391 mGy/MBq
  human equivalent absorbed dose, Pancreas: 0.00665 ± 0.002374 mGy/MBq
  human equivalent absorbed dose, Prostate: 0.0025 ± 0.000105 mGy/MBq
  human equivalent absorbed dose, Rectum: 0.00249 ± 0.000093 mGy/MBq
  human equivalent absorbed dose, Red Marrow: 0.0031 ± 0.000771 mGy/MBq
  human equivalent absorbed dose, Right colon: 0.00367 ± 0.000548 mGy/MBq
  human equivalent absorbed dose, Salivary Glands: 0.00226 ± 0.000156 mGy/MBq
  human equivalent absorbed dose, Small Intestine: 0.00325 ± 0.000446 mGy/MBq
  human equivalent absorbed dose, Spleen: 0.00378 ± 0.000828 mGy/MBq
  human equivalent absorbed dose, Stomach Wall: 0.01628 ± 0.005962 mGy/MBq
  human equivalent absorbed dose, Testes: 0.00204 ± 0.000046 mGy/MBq
  human equivalent absorbed dose, Thymus: 0.01004 ± 0.005999 mGy/MBq
  human equivalent absorbed dose, Thyroid: 0.00355 ± 0.00107 mGy/MBq
  human equivalent absorbed dose, Total Body: 0.00355 ± 0.000856 mGy/MBq
  human equivalent absorbed dose, Urinary Bladder Wall: 0.00247 ± 0.000136 mGy/MBq

## COc1cccc2c1-c1ccc3c(c1C(Cc1ccc(F)cc1)O2)C(C)=CC(C)(C)N3 (racemic) [YJH08, 5-(4-fluorobenzyl)-10-methoxy-2,2,4-trimethyl-2,5-dihydro-1H-chromeno[3,4-f]quinoline]
PR
  Kd: 555 nM

From patent US20220280661A1, “GLUCOCORTICOID RECEPTOR RADIOLIGANDS AND METHODS FOR THEIR PREPARATION AND USE” (The Regents of the University of California, priority 2019, published 2022)
